Data taken from PubChem BioAssay AID504903 (Southern Research Specialized Biocontainment Screening …, 2011).
The source made the active and inactive calls. How the calls were made is not given here.

Legend:
[1] = tested on: M. tuberculosis H37Rv growth in 7H9 medium; assay: M. tuberculosis growth inhibition, dose response, H37Rv, 7H9 media, purified and synthesized compounds, set 5 (AID 504903); conditions: for IC50: measured here: M. tuberculosis growth IC50
[2] = as above; conditions: M. tuberculosis H37Rv growth in 7H9 medium; at 100 µM (top of the series)

| Compound | IC90 [1] | IC50 [1] | growth inhibition [2] |
| --- | --- | --- | --- |
| O=C(CSc1nc2c(c(=O)[nH]1)CCCC2)NC1CCCCC1 | < 70 nM | < 30 nM |  |
| O=C(CSc1ncccn1)NC1CCCCC1 |  |  | -3.3% (inactive) |
| Nc1c(C(=O)NC2CCCCC2)nsc1C(=O)OCC(=O)NC1CCCCC1 | 42400 nM | 1970 nM |  |
| CCC(Sc1nc2c(c(=O)[nH]1)CCC2)C(=O)Nc1cccc(OC)c1 (centres undefined) |  |  | 0.63% (inactive) |
| Cc1nc(SCC(=O)NC2CCCC2)[nH]c(=O)c1C | 10500 nM | 4490 nM |  |
| CC(Sc1nc2ccccc2c(=O)[nH]1)C(=O)NC1CCCCC1 (centres undefined) |  |  | -8.54% (inactive) |
| Cc1nc(SCc2ccccc2Cl)[nH]c(=O)c1C |  |  | -6.23% (inactive) |
| Cc1c[nH]c(=S)[nH]c1=O |  |  | -1.72% (inactive) |
| Nc1cc(=O)[nH]c(SCC(=O)NC2CCCCC2)n1 |  |  | -2.55% (inactive) |
| CCOC(=O)CSc1nc(C)c(C)c(=O)[nH]1 |  |  | -4.51% (inactive) |
| CCOC1OC(=O)C(Cl)=C1Nc1ccccc1C (centres undefined) | 5450 nM | 2900 nM |  |
| O=C(CSc1nc2ccccc2c(=O)[nH]1)NC1CCCCC1 | 310 nM | 160 nM |  |
| CCCc1cc(C(N)=S)ccn1 |  | 6010 nM |  |
| O=C(CSc1nccc(=O)[nH]1)NC1CCCCC1 |  |  | -5.41% (inactive) |
| Cc1ccc(C(=O)N/N=C(/CC(=O)c2cccs2)C(F)(F)F)cc1 | 2940 nM | 1250 nM |  |
| CC1CCN(C(=O)CSc2nc3ccccc3c(=O)[nH]2)CC1 |  |  | -3.58% (inactive) |
| COC(=O)C(C)Oc1ccc(Cc2ncc(C(F)(F)F)cc2Cl)cc1 (centres undefined) | 7660 nM | 3110 nM |  |

| Compound | IC90 [1] | IC50 [1] | growth inhibition [2] |
| --- | --- | --- | --- |
| Cc1cnc(SCC(=O)NC2CCCCC2)[nH]c1=O |  |  | -2.75% (inactive) |
| CC(C)CCNC(=O)CSc1nc2c(c(=O)[nH]1)CCC2 | 1030 nM | 600 nM |  |
| Cc1cc(C)n2nc(N)c(N=Nc3ccccc3)c2n1 | 5540 nM | 3880 nM |  |
| O=C(CSc1nc2ccccc2c(=O)[nH]1)NC1CCCC1 | 550 nM | 30 nM |  |
| COc1c(N2CCNC(C)C2)c(F)cc2c(=O)c(C(=O)O)cn(C3CC3)c12 (centres undefined) | 120 nM | 90 nM |  |
| O=C(CSc1nc2ccccc2c(=O)[nH]1)N1CCOCC1 |  |  | -3.23% (inactive) |
| COc1cccc(NC(=O)CSc2nc3ccccc3c(=O)[nH]2)c1 |  |  | -1.31% (inactive) |
| CC[N+](C)(CC)CCCCOc1ccc2c(c1)C(=O)c1cc(OCCCC[N+](C)(CC)CC)ccc1-2 | 2450 nM | 1500 nM |  |
| O=c1[nH]c(SCc2ccccc2Cl)nc2c1CCCC2 |  |  | -4.24% (inactive) |
| Cc1nc(SCC(=O)NCCC(C)C)[nH]c(=O)c1C | 9790 nM | 4870 nM |  |
| CN[C@@H]1[C@H](O[C@H]2[C@H](O[C@H]3[C@H](O)[C@@H](O)[C@H](N=C(N)N)[C@@H](O)[C@@H]3N=C(N)N)O[C@@H](C)[C@]2(O)C=O)O[C@@H](CO)[C@H](O)[C@H]1O | 140 nM | 70 nM |  |
| CCSc1nc2ccccc2c(=O)[nH]1 |  |  | -4.06% (inactive) |
| Cc1cccc(-c2oc3ccc(-c4ccc5c(c4)OCO5)cc3c2C#Cc2cncn2C)c1 | 3030 nM | 2520 nM |  |
| CN(C)C(=O)CSc1nc2ccccc2c(=O)[nH]1 |  |  | -2.5% (inactive) |
| Cc1cc(=O)[nH]c(SCC(=O)NC2CCCCC2)n1 |  |  | 8.24% (inactive) |
| NNC(=O)c1ccncc1 | 320 nM | 190 nM |  |
